The record followed here is patent EP1336409B1 (priority 1995, dated 1997).

As usually defined, the IC50 is the midpoint of a concentration-inhibition curve.

For the assay, the system named is spinal pia-arachnoid membranes. On the set-up: species or system Macaque nemestrina monkeys. Particulars: read-out: IC50, displacement of [125I]SNX-111 binding. A general note: In a radioligand displacement assay an active substance lowers the binding of a labelled ligand.

In the case of [Nle^12] SNX-111 [SNX-194], the IC50 was 41 µM.
